Source: patent US8937183B2, “Detection of hydrogen peroxide” (Promega Corporation, priority 2011, dated 2015)

What was measured:
[1] = Background reduction of PBI 4472 with background reduction reagent (TCEP); type: biochemical; settings: 50 μM, 100 mM Tris base pH 10.4, BRR (TCEP) versus untreated, FIG. 4
Protocol: PBI 4472 (50 μM) was incubated with assay buffer (100 mM Tris base, pH 10.4) for 15 minutes at room temperature. The samples were then either treated with a background reduction reagent (BRR; TCEP) or remained untreated. After a 15 minute incubation at room temperature, luciferin detection reagent with 1 mM D-cysteine (Promega Corporation) was added to the samples and incubated for 20 minutes at room temperature. Luminescence was detected on a Tecan F500 plate reader.

[2] = Signal differences in mammalian cell culture media (DMEM) versus physiological buffer (HBSS) with hydrogen peroxide; type: biochemical; settings: 30 minutes
Protocol: A 100 μl sample of 4 mg/ml DMSO solution of PBI 4458 was diluted to 500 μl with HBSS buffer (Invitrogen 14025-092), and 50 μl added to wells A1-A9 of a fresh microtiter plate (“DISP”). 100 μl 4 mg/ml DMSO solution of PBI 4472 was diluted to 500 μl with HBSS, and 50 μl added to wells E1-E9. 90 μl HBSS was added to wells A1-B9 of two new microtiter plates labeled “RT” and “37C”. 90 μl DMEM was added to wells C1-D9 of both plates.
A sample of 30% hydrogen peroxide (Sigma H1009-5 ml) was diluted to 1 mM with Nanopure water, and 7.5 μl 1 mM hydrogen peroxide diluted to 1.5 ml with HBSS, and 90 μl added to wells A4-B6 of plates RT and 37° C. 15 μl 1 mM hydrogen peroxide was diluted to […] with HBSS, and 90 μl added to wells A7-B9 of both plates. 90 μl of HBSS was added to wells A1-B3, and 90 μl of DMEM added to wells C1-D3 of both plates. 7.5 μl 1 mM hydrogen peroxide was diluted to 1.5 ml with DMEM, and 90 μl added to wells C4-D6 of both plates. 15 μl 1 mM hydrogen peroxide was diluted to 1.5 ml with DMEM and 90 μl added to wells C7-D9 of both plates.
10 μl samples of row A of plate “DISP” was transferred to rows A and C of plates RT and 37° C., and 10 μl of row B of plate “DISP” transferred to rows B and D of plates RT and 37° C. The 37° C. plate was incubated at 37° C., 5% CO2, with plate RT incubated at room temperature. Both plates were incubated for 30 minutes.
A conversion solution was made by mixing 7.5 ml of 1 M HEPES, pH 8.0, 7.4 ml Nanopure water and 100 μl 100 mM D cysteine. After mixing, 75 μl was added to all wells of a new luminometer plate.
After incubation, 25 μl from wells A1-D9 of the 37° C. plate was transferred to wells E1-H9 of the new luminometer plate, 25 μl of wells A1-D9 of the RT plate was transferred to wells A1-D9 of new luminometer plate, and the plate incubated at room temperature for 2-3 minutes. A 100 μl sample of LDR (Example 23) was added to wells A1-H9, incubated for 15 minutes at room temperature, and bioluminescence detected on a GloMax® luminometer. After reading, the duplicate wells were averaged, and the averaged values with peroxide addition were compared to those without peroxide (Table 11).

SMILES	background luminescence with reduction reagent (in words) [1]	Averaged Relative Light Unit Values ([2]; DMEM, 37 C. plate, 0 uM Per)	Averaged Relative Light Unit Values ([2]; DMEM, 37 C. plate, 5 uM Per)	Averaged Relative Light Unit Values ([2]; DMEM, 37 C. plate, 10 uM Per)	Averaged Relative Light Unit Values ([2]; DMEM, RT plate, 0 uM Per)	Averaged Relative Light Unit Values ([2]; DMEM, RT plate, 5 uM Per)	Averaged Relative Light Unit Values ([2]; DMEM, RT plate, 10 uM Per)	Averaged Relative Light Unit Values ([2]; HBSS, 37 C. plate, 0 uM Per)	Averaged Relative Light Unit Values ([2]; HBSS, 37 C. plate, 5 uM Per)	Averaged Relative Light Unit Values ([2]; HBSS, 37 C. plate, 10 uM Per)	Averaged Relative Light Unit Values ([2]; HBSS, RT plate, 0 uM Per)	Averaged Relative Light Unit Values ([2]; HBSS, RT plate, 5 uM Per)	Averaged Relative Light Unit Values ([2]; HBSS, RT plate, 10 uM Per)
CC1(C)OB(c2ccc(COc3ccc4nc(C#N)sc4c3)cc2)OC1(C)C [PBI 4472, 6-((4-(4,4,5,5-tetramethyl-1,3,2-dioxaborolan-2-yl)benzyl)oxy)benzo-[d]thiazole-2-carbonitrile]	can reduce background	400,077 Relative Light Unit	3,083,589 Relative Light Unit	5,340,569 Relative Light Unit	921,496 Relative Light Unit	4,304,645 Relative Light Unit	8,071,553 Relative Light Unit	44,007 Relative Light Unit	424,851 Relative Light Unit	715,803 Relative Light Unit	103,738 Relative Light Unit	1,106,195 Relative Light Unit	2,058,421 Relative Light Unit
CC1(C)OB(/C=C/COc2ccc3nc(C#N)sc3c2)OC1(C)C [PBI 4458, (E)-6-((3-(4,4,5,5-tetramethyl-1,3,2-dioxaborolan-2-yl)allyl)oxy)-benzo[d]thiazole-2-carbonitrile]		986,772 Relative Light Unit	5,686,033 Relative Light Unit	12,130,782 Relative Light Unit	2,075,191 Relative Light Unit	8,556,256 Relative Light Unit	16,016,143 Relative Light Unit	434,728 Relative Light Unit	2,791,805 Relative Light Unit	4,912,905 Relative Light Unit	853,268 Relative Light Unit	6,111,214 Relative Light Unit	10,641,411 Relative Light Unit
